Source: patent US20170283859A1, “MICROFLUIDIC qRT-PCR ANALYSIS OF SINGLE CELLS” (The Trustees Of Columbia University In the City of New York, priority 2014, published 2017)

Experiments:
Format in all cases: cell-based
[1] = test system: CDKN1A gene expression in single MCF-7 cells; assay: Fully integrated on-chip single-cell RT-qPCR (single analysis unit device), induction of CDKN1A
Procedure: In this example, all steps of single-cell RT-qPCR were integrated in the device from Example 1. […] MCF-7 cells were incubated with MEM media supplemented with 10% FBS and […], and were kept at 37° C. in a humidified incubator containing 5% CO2. The Cells used herein, whether treated or not, were from the same generation of MCF-7 cells to eliminate potential generational gene expression differences. The MCF-7 cell suspension was first diluted to 10^5 cells per mL in a microcentrifuge tube, and mixed to homogenize the suspension and break up cell clusters. The homogenized cell suspension was then driven into the device through the cell inlet via a syringe pump while valves were used to manipulate the direction of the flow. The trapping structure was observed under a microscope. As all cells were directed through the cell trapping unit and the width of the channel at the protruding structure (i.e., the portion of the mold that narrows the channel) within the trapping unit (5 μm) is smaller than the average diameter of MCF-7 cells (18±2 μm), a single cell was immobilized in the trap. Once a single cell was trapped, the upstream control valve (FIG. 5) was activated while the cell washing outlet was opened to direct (the potentially cell-containing) carrier fluid away from the cell trap. On average, 1.5 cells were introduced into the device per second. Single cells were consistently trapped in the microchip in 150 seconds or less. A lysis solution (100 mM TrisHCl, pH 7.5, 500 mM LiCl, 10 mM EDTA, 1% LiDS, 5 mM dithiothreitol) was used to chemically lyse the trapped cells. By mixing oligo(dT)25 functionalized beads with the cell lysate, mRNA templates from a single cell were captured and purified on the surface of the beads. The beads were then moved back to the reaction chamber and retained by an external magnet. With the cell trapping and washing outlets closed and the upstream and downstream valves open (FIG. 5), RT reagents were pipetted into the device chamber, followed by the closure of all the inlets and outlets. Then a pulsed temperature RT protocol was carried out (10 min at 25° C. and 50 min at 42° C.). Similarly, after RT, PCR reagents were introduced into the device which simultaneously flushed away the RT reagent, while the chip was situated on a magnet to immobilize the beads. Once the PCR reagents completely filled the reaction chamber, all the outlets were sealed with plugs. Then the platform was placed on the stage of a fluorescent microscope. Each PCR process was initialized and thermocycled with the following protocols: 10 min at 95° C., followed by 35 cycles of 15 s at 95° C. and 1 min at 60° C. The gene expressions of single cells were assayed for the induction of CDKN1A using a hydrolysis probe/primer. […] The threshold was calculated to be 0.07. […]

[2] = test system: CDKN1A transcript levels in single MCF-7 cells; assay: Microfluidic array single-cell RT-qPCR, drug induced CDKN1A expression
Procedure: During the operation of the array chip, a single analysis unit is selected through the multiplexed valves and then 4x10^6 magnetic beads are introduced (100 nL/s for 20 s) until all analysis units have beads with a syringe pump while an external magnet is held under the chambers. The amount of beads is determined according to the manufacturer's reported bead density and verified by pipetting beads onto a glass slide and counting the total amount of beads with ImageJ software. Next a single analysis unit is reselected with the multiplexed valves and 1.25 μL of cell-containing carrier buffer are introduced (concentration: 10^5 cells/mL, flow rate: 15 nL/s, and infusion time: 83.3 seconds) into the microfluidic device and travel through the cell trap with the first cell to reach the trapping structure becoming trapped. The width of the constriction (5 μm) is smaller than the diameter of the cells (18±2 μm) and therefore the single cell can be immobilized in the trap.
Once a single cell becomes immobilized, the back control valve is opened to allow carrier fluid, potentially containing additional cells, to bypass the trapping region and flow directly to the outlet. To further ensure that no cells remain in the outlet well, buffer is injected into the inlet well with a syringe with a 25 gauge stainless steel needle. Lysis buffer is introduced into the cell trap region of each analysis unit at a flow rate of 2 μl/min over a 5-min period to lyse the trapped cell (Sun et al. 2015). After cell lysis the beads were mixed with the cell lysate by manually moving the magnet and captured the mRNA in the cell content, based on complimentary base pairing between the polyA tails of the mRNA and the oligo(dT)25 residues covalently coupled to the bead surfaces. […] The beads were moved into the active chamber and mixed with the sample (mRNA in cell lysate or XenoRNA) by magnet-driven motion. This process is then repeated for the remaining units of the array chip until five of the RT-qPCR chambers each contain beads with bound mRNA. The sixth chamber provides no-template control.
Reverse transcription is performed in all of the six chambers to convert the mRNA into cDNA, using the bead-bound oligo(dT)25 as a primer and with the chamber temperatures controlled simultaneously in closed loop by the integrated heater and temperature sensor (RT: 10 min at 25° C. and 50 min at 42° C.). The resulting cDNA template for PCR is amplified (qPCR: 10 min at 95° C., followed by 40 cycles of 15 s at 95° C. and 1 min at 60° C.) while the accumulation of products is imaged on a fluorescence microscope using a hydrolysis probe/primer set (TaqMan®). The reagent probe/primer consists of a fluorescein amidite (FAM) reporter dye, a minor groove binder and a nonfluorescent quencher (NFQ). Initially, the fluorescence of FAM is suppressed by NFQ. During the PCR annealing process, the probe binds to a complementary region of the target template. Then, during the elongation process that follows, […] from the probe, causing the fluorescent intensity of FAM to increase. To correct for fluorescent fluctuations due to batch-to-batch changes in cavity volume and PCR component concentrations, a passive reference dye (ROX) is employed to normalize the FAM signal during real-time measurements. Fluorescent intensities of ROX and FAM are acquired and measured at the end of each PCR cycle (FIG. 29).
In this example, stress induced gene expression in single cells was investigated by treating cells with MMS, an alkylating agent, and then analyzing them by on-chip RT-qPCR. […]
In each test, five MMS treated or untreated single cells were isolated and immobilized in five separate analysis units of the array, and the remaining unit was used as a no-template control. Similar to the above mentioned protocol, after cell trapping and lysis, the two-step RT-qPCR was initialized. […]

[3] = test system: GAPDH transcript level in single MCF-7 cells; assay: Microfluidic array single-cell RT-qPCR, housekeeping gene GAPDH; settings: 120 μg/mL MMS for 2.5 h
Procedure: During the operation of the array chip, a single analysis unit is selected through the multiplexed valves and then 4x10^6 magnetic beads are introduced (100 nL/s for 20 s) until all analysis units have beads with a syringe pump while an external magnet is held under the chambers. The amount of beads is determined according to the manufacturer's reported bead density and verified by pipetting beads onto a glass slide and counting the total amount of beads with ImageJ software. […] The resulting cDNA template for PCR is amplified (qPCR: 10 min at 95° C., followed by 40 cycles of 15 s at 95° C. and 1 min at 60° C.) while the accumulation of products is imaged on a fluorescence microscope using a hydrolysis probe/primer set (TaqMan®). […] Initially, the fluorescence of FAM is suppressed by NFQ. […] Fluorescent intensities of ROX and FAM are acquired and measured at the end of each PCR cycle (FIG. 29). […] The transcript levels of CDKN1 A and the housekeeping gene GAPDH was measured in MMS treated (120 μg/mL for 2.5 h) and untreated single MCF-7 cells using the microfluidic array. […]

Which results are given for `COS(C)(=O)=O` [MMS, methyl methanesulfonate]?
amount of starting templates higher than in untreated single cells ([1]; 2.5 h MMS treated MCF-7 cells): about 45 folds; Cq value of CDKN1A RT-qPCR ([1]; MMS treated single MCF-7 cells, 2.5 h, mean of five repeated tests, untreated 32.3): 26.8; mean Cq value lower than untreated single cells ([1]; MMS treated vs untreated single MCF-7 cells): 5.48 cycles; transcript levels of the CDKN1A gene after MMS treatment ([1]; single MCF-7 cells): upregulated significantly; ΔCq (difference between Cq of treated and untreated cells), CDKN1A ([2]; 120 μg/mL MMS for 2.5 h): 3.0; mean Cq value of CDKN1A ([2]; 120 μg/mL MMS for 2.5 h, untreated 33.5): 30.5; transcript levels of CDKN1A on treating single cells with MMS ([2]; 120 μg/mL for 2.5 h): upregulated significantly; upregulation of CDKN1A expression vs MMS dosage ([2]; 30 to 150 μg/mL, 2.5 h): positively correlated with MMS dosage; mean Cq value of CDKN1A ([2]; dosage 30 μg/ml, 2.5 h): 33.5; mean Cq value of CDKN1A ([2]; dosage 150 μg/ml, 2.5 h): 29.3; mean Cq value of CDKN1A ([2]; exposure time 0.5 h): 32.9; mean Cq value of CDKN1A ([2]; exposure time 4.5 h): 28.1; inter-unit Cq difference for CDKN1A ([2]; first dose step (doses from 30 to 150 μg/ml, 2.5 h)): 0.4; inter-unit Cq difference for CDKN1A ([2]; fourth dose step (doses from 30 to 150 μg/ml, 2.5 h)): 0.7; upregulation of CDKN1A expression vs treating time duration ([2]; range of 0.5 to 4.5 h): positively correlated with treating time duration; inter-unit Cq difference for CDKN1A ([2]; second dose step (doses from 30 to 150 μg/ml, 2.5 h)): 0.7; inter-unit Cq difference for CDKN1A ([2]; third dose step, 90 to 120 μg/ml, 2.5 h): 1.3; ΔCq (difference between Cq of treated and untreated cells), GAPDH [3]: approximately 0.5
